Reference: PubChem BioAssay (NCI)
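Step 1: Grow cells in 96-well plates. Step 2: Expose to compound for 48 hours at 5 concentrations. Step 3: Interpolate endpoints linearly; if unreached, use highest concentration. TGI is the concentration that stops growth completely.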

Experiments:
Experiment in all cases: NCI anticancer screen, dose series, 48 h
[1] = tested on: HS 578T breast
[2] = tested on: UACC-257 melanoma
[3] = tested on: A498 renal
[4] = tested on: HOP-92 NSCLC
[5] = tested on: EKVX NSCLC
[6] = tested on: IGROV1 ovarian
[7] = tested on: PC-3 prostate
[8] = tested on: CAKI-1 renal
[9] = tested on: RXF 393 renal
[10] = tested on: SNB-75 CNS
[11] = tested on: SF-295 CNS
[12] = tested on: K-562 leukemia
[13] = tested on: HCC-2998 colon
[14] = tested on: HL-60(TB) leukemia
[15] = tested on: MDA-N
[16] = tested on: RPMI-8226 leukemia
[17] = tested on: COLO 205 colon
[18] = tested on: MOLT-4 leukemia
[19] = tested on: SN12C renal
[20] = tested on: SK-MEL-5 melanoma
[21] = tested on: TK-10 renal
[22] = tested on: DU-145 prostate
[23] = tested on: SR leukemia
[24] = tested on: HCT-116 colon
[25] = tested on: SF-539 CNS
[26] = tested on: OVCAR-4 ovarian
[27] = tested on: NCI-H522 lung
[28] = tested on: KM12 colon
[29] = tested on: NCI-H23 lung
[30] = tested on: BT-549 breast
[31] = tested on: CCRF-CEM leukemia
[32] = tested on: OVCAR-3 ovarian
[33] = tested on: LOX IMVI melanoma
[34] = tested on: UO-31 renal
[35] = tested on: OVCAR-8 ovarian
[36] = tested on: U251 CNS
[37] = tested on: SK-OV-3 ovarian
[38] = tested on: NCI-H226 lung
[39] = tested on: M14 melanoma
[40] = tested on: MCF7 breast
[41] = tested on: HCT-15 colon
[42] = tested on: HOP-62 NSCLC
[43] = tested on: A549 NSCLC
[44] = tested on: SW-620 colon
[45] = tested on: MDA-MB-231 breast
[46] = tested on: HT29 colon
[47] = tested on: MDA-MB-435
[48] = tested on: NCI/ADR-RES ovarian
[49] = tested on: 786-0 renal
[50] = tested on: ACHN renal
[51] = tested on: NCI-H460 lung
[52] = tested on: OVCAR-5 ovarian
[53] = tested on: SK-MEL-2 melanoma
[54] = tested on: MALME-3M melanoma
[55] = tested on: SNB-19 CNS
[56] = tested on: T-47D breast
[57] = tested on: SK-MEL-28 melanoma
[58] = tested on: SF-268 CNS
[59] = tested on: UACC-62 melanoma

Brc1ccc2[nH]cc(-c3csc(-c4ccccn4)n3)c2c1
TGI [1]: > 100 µM | TGI [2]: > 85.2 µM | TGI [3]: 12.4 µM | TGI [4]: > 95.8 µM | TGI [5]: 48.2 µM | TGI [6]: > 88.8 µM | TGI [7]: 51.7 µM | TGI [8]: > 94.9 µM | TGI [9]: 18.7 µM | TGI [10]: 36.4 µM | TGI [11]: > 26.4 µM | TGI [12]: > 100 µM | TGI [13]: 31 µM | TGI [14]: > 100 µM | TGI [15]: > 100 µM | TGI [16]: 63.7 µM | TGI [17]: > 56.3 µM | TGI [18]: > 53.6 µM | TGI [19]: 30.7 µM | TGI [20]: 55.9 µM | TGI [21]: > 100 µM | TGI [22]: > 86.5 µM | TGI [23]: 43.6 µM | TGI [24]: 50.9 µM | TGI [25]: > 100 µM | TGI [26]: > 92.8 µM | TGI [27]: > 100 µM | TGI [28]: > 100 µM | TGI [29]: > 100 µM | TGI [30]: > 100 µM | TGI [31]: > 100 µM | TGI [32]: > 38 µM | TGI [33]: 33.2 µM | TGI [34]: > 100 µM | TGI [35]: > 100 µM | TGI [36]: 36.4 µM | TGI [37]: > 100 µM | TGI [38]: 34.8 µM | TGI [39]: > 100 µM | TGI [40]: > 100 µM | TGI [41]: > 100 µM | TGI [42]: > 45.5 µM | TGI [43]: > 70.3 µM | TGI [44]: 98.6 µM | TGI [45]: > 75.4 µM | TGI [46]: 38.7 µM | TGI [47]: > 100 µM | TGI [48]: > 100 µM | TGI [49]: 20.3 µM | TGI [50]: 23.7 µM | TGI [51]: 22.4 µM | TGI [52]: > 100 µM | TGI [53]: > 100 µM | TGI [54]: 65.2 µM | TGI [55]: > 100 µM | TGI [56]: > 100 µM | TGI [57]: > 100 µM | TGI [58]: > 59.7 µM

CO/N=C(\C)c1ccc(Nc2c3ccccc3nc3occc23)cc1
TGI [1]: 10.3 µM | TGI [2]: 44.1 µM | TGI [3]: 9.94 µM | TGI [4]: 42 µM | TGI [5]: 39.9 µM | TGI [6]: 12.4 µM | TGI [7]: 49.3 µM | TGI [8]: 7.15 µM | TGI [9]: 0.877 µM | TGI [10]: 3.29 µM | TGI [11]: 1.98 µM | TGI [12]: 37.3 µM | TGI [13]: 1.94 µM | TGI [14]: 2.23 µM | TGI [15]: 0.379 µM | TGI [16]: 12.1 µM | TGI [17]: 6.37 µM | TGI [18]: 33.5 µM | TGI [19]: 22.6 µM | TGI [20]: 6.53 µM | TGI [21]: 18.4 µM | TGI [22]: 10.3 µM | TGI [23]: 21.9 µM | TGI [24]: 12.1 µM | TGI [25]: 2.28 µM | TGI [26]: 7.58 µM | TGI [27]: 0.311 µM | TGI [28]: 12.5 µM | TGI [29]: 26.4 µM | TGI [30]: 21.3 µM | TGI [31]: 35.9 µM | TGI [32]: 2.85 µM | TGI [33]: 18.2 µM | TGI [34]: 25.1 µM | TGI [35]: 14.8 µM | TGI [36]: 10.9 µM | TGI [37]: 17.2 µM | TGI [38]: 28.5 µM | TGI [39]: 9.59 µM | TGI [40]: 1.59 µM | TGI [41]: 13.1 µM | TGI [42]: 16.2 µM | TGI [43]: 20 µM | TGI [44]: 18.9 µM | TGI [45]: 10.2 µM | TGI [46]: 2.16 µM | TGI [47]: 0.224 µM | TGI [48]: 4.75 µM | TGI [59]: 16.3 µM | TGI [49]: 6.67 µM | TGI [50]: 35.2 µM | TGI [51]: 9.05 µM | TGI [52]: 32.2 µM | TGI [53]: 1.94 µM | TGI [54]: 0.895 µM | TGI [55]: 45.1 µM | TGI [56]: 19.2 µM | TGI [57]: 8.62 µM | TGI [58]: 18.6 µM
